US20160120932A1, “TRANSPLANT SITE-FORMING AGENT, TRANSPLANT SITE-FORMING DEVICE, ANGIOGENIC AGENT AND ANGIOGENIC DEVICE” (Kyoto University, priority 2014, published 2016)

Legend:
[1] = system: subcutaneous tissue of diabetic ACI rats; test: Amount of hemoglobin in subcutaneous tissue at contact portion with the agarose rod; assay type: in vivo, rat; conditions: agarose rod containing 10 μg or 100 μg of SEK-1005, implanted for 10 days
Protocol: (§1) Diabetic rats were prepared by intraperionerally administering streptozocin (STZ) to ACI rats (8-week old, male). The blood glucose level of the rats were measured, and it was determined that diabetes was induced when the blood glucose level exceeded 400 mg/dL for 2 days in succession. A substrate formed of 4.5% agarose gel having a rod shape of 25 mm in length and 4 mm in diameter was impregnated with SEK-1005 (100 μg) dissolved in alcohol. After sufficiently evaporating alcohol, the agarose rod was impregnated with physiological saline. The agarose rods were implanted under the skin of the diabetic rats at two portions, on the right side and on the left side of the backbone, respectively. As a control, agarose rods that were impregnated with physiological saline without SEK-1005 were implanted under the skin of a diabetic rat, on the right side and on the left side of the backbone, respectively.
The data shown in FIG. 3 are the measurement results of the amount of hemoglobin of a diabetic ACI rat to which an agarose rod was not implanted, a diabetic rat implanted with an agarose rod not containing SEK-1005, a diabetic rat implanted with an agarose rod containing 10 μg of SEK-1005, and a diabetic rat implanted with an agarose rod containing 100 μg of SEK-1005. The measurement was conducted after removing the agarose rod that had been implanted for 10 days. […]

diabetic ACI rats [2] = test: Glucose tolerance test of recipients after transplantation of pancreatic islets; assay type: in vivo, rat; conditions: glucose intraperitoneally (60 mg/kg)
Excerpt: (§2) Pancreatic islets were separated from a F344 rat as a donor, and were transplanted to the diabetic ACI rats as prepared above as recipients. Specifically, the agarose rods containing SEK-1005 as prepared in the same process as described above were implanted on the right side and on the left side of the backbone of the diabetic rats, respectively, and were removed 10 days after the implantation. Thereafter, 1500 pancreatic islets separated from the F433 rat were transplanted to each of the spaces formed by removing the agarose rods, respectively (3000 pancreatic islets in total).
In the test, changes in the blood glucose level after intraperitoneally administering glucose (60 mg/kg) were examined.
Further, glucose was administered in the same manner as the above to the recipients at 100 to 105 days after the transplantation of pancreatic islets, and the changes in the blood glucose level were examined. As a result, a trend that a degree of decrease in blood glucose level was less than the recipients at 50 to 55 days after the transplantation of the pancreatic islets was observed. […] On the other hand, the diabetic rats maintained a blood glucose level of as high as approximately 500 mg/dL. The error bars in FIG. 7 each indicate standard deviations (normal; n=4, diabetic; n=3, 40 days after transplantation; n=4, 90 days after transplantation; n=4).

[3] = system: white blood cells or bone-marrow cells; conditions: JP-A H10-259134; cited from earlier work
diabetic ACI rats [4] = test: HE-stained and immunofluorescent-stained tissue slice of the transplant site; assay type: in vivo, rat; conditions: 106 days after transplantation
Excerpt: as §2
The upper images in FIG. 8 are photographs of a HE-stained tissue slice prepared from a site at which the pancreatic islets were transplanted, obtained from a recipient with a normalized blood glucose level at 106 days after the transplantation of the pancreatic islets.
The lower image in FIG. 8 is an immunofluorescent-stained image of a tissue slice obtained at the substantially same site to the HE-stained tissue slice.

diabetic ACI rats [5] = test: Plasma insulin concentration of recipients after transplanting pancreatic islets; assay type: in vivo, rat; conditions: at 40 days and at 90 days after transplanting the pancreatic islets; casual measurements
Excerpt: as §2
The error bars in FIG. 6 each indicate standard deviations (normal; n=4, diabetic; n=3, 40 days after transplantation; n=4, 90 days after transplantation; n=4). The values of the plasma insulin concentration are casual measurements.

diabetic ACI rats [6] = test: Blood glucose level of recipients after transplanting pancreatic islets to the site from which the agarose rod was removed; assay type: in vivo; conditions: SEK-1005 rods removed after 10 days, 3000 pancreatic islets from F344 rat transplanted; casual blood glucose level
Protocol: as §1
as §2, with “Thereafter, 1500 pancreatic islets separated from the F433 rat were transplanted to each of the spaces formed by removing the agarose rods, respectively (3000 pancreatic islets in total).” left out

[7] = system: subcutaneous tissue of diabetic ACI rats; test: Evaluation of effect of inducing angiogenesis: observation of tissue around agarose rod implanted under the skin (gross and HE-stained slice); assay type: in vivo, rat
Protocol: as §1
Ten days after the implantation, the agarose rods were removed and the surrounding tissues were observed.

diabetic rat = conditions: device containing bFGF; cited from earlier work

Compound | amount of hemoglobin in the subcutaneous tissue (FIG. 3) [1] | changes in blood glucose level in glucose tolerance test (FIG. 7) (diabetic ACI rats [2]; 50 to 55 days after transplantation) | changes in blood glucose level in glucose tolerance test (FIG. 7) (diabetic ACI rats [2]; 100 to 105 days after transplantation) | amount of granulation tissue [3] | blood vessels in the cell clumps, HE-stained tissue slice of transplant site (FIG. 8) (diabetic ACI rats [4]) | insulin-positive cells in immunofluorescent-stained tissue slice (FIG. 8) (diabetic ACI rats [4]) | pancreatic islet cell clumps in HE-stained tissue slice of transplant site (FIG. 8) (diabetic ACI rats [4]; recipient with normalized blood glucose level) | plasma insulin concentration versus diabetic rat to which pancreatic islets were not transplanted (FIG. 6) (diabetic ACI rats [5]) | plasma insulin concentration versus normal rat (FIG. 6) (diabetic ACI rats [5]) | blood glucose levels of recipients (FIG. 4) (diabetic ACI rats [6]) | development of blood vessels having a small diameter at the surrounding tissue (FIG. 1) ([7]; agarose rod containing SEK-1005 (100 μg) implanted under the skin for 10 days, compared to rod not containing SEK-1005) | development of blood vessels having a small diameter in HE-stained subcutaneous tissue slice (FIG. 2) ([7]; contact portion with agarose rod containing SEK-1005, compared with rod not containing SEK-1005) | blood glucose level after transplanting pancreatic islets at the site after removing the device (diabetic rat) | generation of blood vessels at the site under the skin where the device was implanted (diabetic rat)
CC(C)CC1CCC(O)(C(C)(O)C(=O)NC2C(=O)N3NCCCC3C(=O)N(O)C(C)C(=O)N(C)C(Cc3ccccc3)C(=O)N3NCCCC3C(=O)NC(CO)C(=O)OC2C(C)C)OC1C (stereo not drawn) [SEK-1005, Ser,3-hydroxy-N-[2-hydroxy-1-oxo-2-tetrahydro-2-hydroxy-6-methyl-5-(2-methylpropyl)-2H-pyran-2-yl-propyl]-Leu-Pip(hexahydro-3-pyridazinecarbonyl)-N-hydroxy-Ala-N-methyl-Phe-Pip-rho-lactone] | increased | controlled to a similar level to a normal rat | controlled to a degree similar to that of a normal rat | increasing the amount of a granulation tissue | many blood vessels having a small diameter penetrated the cell clumps | insulin-positive cells were observed | many cell clumps which were considered to be pancreatic islets existed | significantly higher | did not show a significant difference | four in six recipients were normalized over 100 days | blood vessels having a small diameter were developed | blood vessels having a small diameter were developed | – | –
bFGF: basic fibroblast growth factors, a substance for inducing angiogenesis | – | – | – | – | – | – | – | – | – | – | – | – | normalized during a long period of time | generation of blood vessels having a small diameter was observed
